Results as given in article PMC6150735, “Molecular Docking-Based Design and Development of a Highly Selective Probe Substrate for UDP-glucuronosyltransferase 1A10” (Molecular Pharmaceutics, 2018).
“Also recorded” adds a separate entry of the source.

What was measured:
[1] = Excitation and emission fluorescence spectra of coumarin derivatives; assay type: physicochemical; design: dose or concentration left out as unconfirmed
Procedure: The absorbance spectra of 10 μM coumarin derivatives at 100 mM Tris–HCl pH 7.4 containing 10% dimethyl sulfoxide were measured using a Hitachi U-2000 Spectrophotometer (Tokyo, Japan). […] The excitation spectra was from 200 to 420 at 460 nm emission and the emission spectra was from 400 to 600 at 390 nm excitation (data in Supplementary Table S1 and Figures S1 and S2). The effect of pH on fluorescence intensity was determined at 405 nm excitation and 460 nm emission, in the presence of 1.5% trichloroacetic acid, 100 mM phosphate buffers at pH 5, 6, 7, 8, and 9, or 1.6 M glycine–NaOH pH 10.4.

[2] = molecular target: T1, UGT1A10 mutant 1A10-H210M (Homo sapiens, UniProt Q9HAW8, H210M); assay: Glucuronidation kinetics by UGT1A10 mutant 1A10-H210M (fluorescence decrease, 96-well plate); assay type: biochemical; conditions: mutant versus wild-type UGT1A10
T1 construct: His-tag; made in house; host or cells: baculovirus-infected SF9 insect cells
T1 sequence (Q9HAW8 26-530 H210M): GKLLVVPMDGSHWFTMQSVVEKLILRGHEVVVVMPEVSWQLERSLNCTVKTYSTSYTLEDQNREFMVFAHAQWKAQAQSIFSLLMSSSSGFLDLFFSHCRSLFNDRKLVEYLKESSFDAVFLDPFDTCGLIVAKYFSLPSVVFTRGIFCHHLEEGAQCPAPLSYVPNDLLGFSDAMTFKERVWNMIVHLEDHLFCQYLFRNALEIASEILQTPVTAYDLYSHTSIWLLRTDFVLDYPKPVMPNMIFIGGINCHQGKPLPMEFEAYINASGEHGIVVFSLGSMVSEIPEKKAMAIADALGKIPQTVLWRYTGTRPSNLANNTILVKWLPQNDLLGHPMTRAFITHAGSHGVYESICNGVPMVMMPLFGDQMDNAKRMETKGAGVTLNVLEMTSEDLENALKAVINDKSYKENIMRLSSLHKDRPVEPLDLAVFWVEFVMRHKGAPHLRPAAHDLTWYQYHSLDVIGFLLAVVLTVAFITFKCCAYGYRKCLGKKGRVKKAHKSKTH
Procedure: The UGT1A10 mutant 1A10-H210 M was prepared according to the QuikChange methodology, using the cloned UGT1A10 in pFastBac[42] as a template and the following two oligonucleotides:
The entire coding sequence of UGT1A10 in the mutant clone was sequenced, and subsequently, recombinant baculovirus was prepared and used to express the mutant enzyme in baculovirus-infected SF9 insect cells.
The incubation mixtures for glucuronidation assays contained 100 mM Tris-HCl buffer pH 7.4, 2.5 mM MgCl2, 0.5 mM UDPGA, recombinant UGT, or microsomes as the enzyme source and 0–15 μM of the test aglycone substrate. When the incubation mixtures contained microsomes, alamethicin was used at a final concentration of 12.5 μg/mL, but it was not included in the recombinant enzyme assays.[43] In the first experiments three negative control samples were tested, namely (i) without the substrate 7-hydroxycoumarin derivative, (ii) without the cofactor UDPGA, or (iii) without the enzyme source. In subsequent experiments, the control samples lacked the enzyme source since it gave the highest fluorescence background. […] Fluorescence spectra (excitation 200–420 nm; emission 400–600 nm) or fluorescence decrease at 390 nm excitation and 460 nm emission, were measured in these preliminary experiments, using a Shimadzu RF-5000 spectrophotofluorometer.
Most of the glucuronidation assays were carried out in 96 multiwell plate format, and incubations were carried out in 100 μL and at 37 °C, in the presence of Tris–HCl buffer pH 7.4, UDPGA, and the tested 7-hydroxycoumarin derivative, at the indicated concentrations. Fluorescence decline in the multiwell plate experiments was monitored every other minute, for 40 min, using an excitation filter at 405 nm and detection at 460 nm, in a Victor2 1420 Multilabel counter (PerkinElmer, Life Sciences, Turku, Finland). The fluorescence values were transformed into molarity using the aglycone substrates for making the respective standard curves. […] Enzyme catalyzed glucuronidation rate was calculated by subtracting the blank value from the full reaction value. […]

[3] = Glucuronidation by human intestinal microsomes (HIM); assay type: in vitro ADME; conditions: human, pooled human intestinal microsomes (HIM), pH 7.4
Procedure: (§1) A commercial HLM pool (cat no:452210, BD Gentest, Bedford, MA) and human intestine microsomes (HIM) pool (lot. no 1110189, XenoTech, Kansas City, KS) were purchased. Pig liver samples were prepared from untreated female pigs that were used for practicing surgical procedures at the University of Kuopio (currently: University of Eastern Finland, Kuopio campus). Other animal liver microsomes were prepared as described previously.[41] The Ethics Committee for Animal Experiments, University of Kuopio, approved these experiments.
(§2) The incubation mixtures for glucuronidation assays contained 100 mM Tris-HCl buffer pH 7.4, 2.5 mM MgCl2, 0.5 mM UDPGA, recombinant UGT, or microsomes as the enzyme source and 0–15 μM of the test aglycone substrate. When the incubation mixtures contained microsomes, alamethicin was used at a final concentration of 12.5 μg/mL, but it was not included in the recombinant enzyme assays.[43] In the first experiments three negative control samples were tested, namely (i) without the substrate 7-hydroxycoumarin derivative, (ii) without the cofactor UDPGA, or (iii) without the enzyme source. In subsequent experiments, the control samples lacked the enzyme source since it gave the highest fluorescence background. Preliminary experiments were done under different conditions than most of the later assays, namely in 2.5 mL of 100 mM phosphate buffer pH 7.4, containing 500 μg pig liver microsomes, 1.0 μM compound 6 and 0.5 mM UDPGA, at room temperature. Fluorescence spectra (excitation 200–420 nm; emission 400–600 nm) or fluorescence decrease at 390 nm excitation and 460 nm emission, were measured in these preliminary experiments, using a Shimadzu RF-5000 spectrophotofluorometer.
(§3) Most of the glucuronidation assays were carried out in 96 multiwell plate format, and incubations were carried out in 100 μL and at 37 °C, in the presence of Tris–HCl buffer pH 7.4, UDPGA, and the tested 7-hydroxycoumarin derivative, at the indicated concentrations. Fluorescence decline in the multiwell plate experiments was monitored every other minute, for 40 min, using an excitation filter at 405 nm and detection at 460 nm, in a Victor2 1420 Multilabel counter (PerkinElmer, Life Sciences, Turku, Finland). The fluorescence values were transformed into molarity using the aglycone substrates for making the respective standard curves. Slopes of the substrate concentration decrease per minute were calculated using linear regression analysis, in which the linear part of the kinetic assay indicated the glucuronidation rate. Enzyme catalyzed glucuronidation rate was calculated by subtracting the blank value from the full reaction value. The intra-assay variability of the kinetic assays was 6% when compound 6 was used as the aglycone substrate. Kinetic analyses were also performed in the same 96 multiwell plates format, with excitation filter at 405 nm and detection at 460 nm, using 6–8 different substrate concentrations per substrate and two different protein concentrations for both the wild-type and mutant UGT1A10. The higher concentrations, 13.5 mg/L for UGT1A10 and 12.0 mg/L for the UGT1A10 mutant, were used when the substrates were HFC, compounds 4 and 6, whereas the lower protein concentrations, 6.75 and 6.0 mg/L for UGT1A10 and the mutant, respectively, were used when the substrates were compounds 1, 2, 3, and 5.

[4] = system: human liver microsomes (HLM); assay: Glucuronidation by human liver microsomes (HLM); assay type: in vitro ADME
Procedure: as §1, §2, §3

[5] = Glucuronidation by human liver microsomes (HLM); assay type: in vitro ADME; conditions: pooled human liver microsomes (HLM), pH 7.4; human hepatic microsomes
Procedure: as §1, §2, §3

human UGTs = assay: Recombinant human UGT screen: glucuronidation rates across human UGTs; assay type: biochemical; conditions: 10 μM aglycone; other UGTs at very low rates
Procedure: Recombinant human UGTs 1A1, 1A3, 1A6, 1A7, 1A8, 1A9, 1A10, 2A1, 2A2, 2A3, 2B4, 2B10, 2B7, and 2B17 were produced, as His-tagged proteins, in baculovirus-infected insect cells as previously described.[37]−[39] The relative expression level of each of these recombinant UGTs was evaluated by immunodetection, using monoclonal antibody against the His-tag, as described elsewhere.[40] A numeric value of 1.0 was given to the expression level of UGT1A8 and the relative expression level of each of the other UGTs was related to this value. Normalized activities were obtained by dividing the glucuronidation rate values by the relative expression level of the tested UGT. In addition, UGTs 1A4, 2B10, and 2B15 were purchased from Corning Life Sciences (New York) and are marked, in Figure 5, with a “C” to indicate that they are commercial enzymes. The expression levels of the UGTs in the commercial samples could not be determined, so their protein concentration was used to calculate the reaction rate.
as §2, §3

## O=c1oc2cc(O)ccc2cc1-n1cncn1 [Compound 6, 7-Hydroxy-3-(1H-1,2,4-triazol-1-yl)-2H-chromen-2-one]
[1]
  Fluorescence EMmax: 494 nm
  Fluorescence EXmax: 396 nm
[2]
  Change of Km by the H210M mutation (in words): considerably increased
[3]
  Km: 12 µM
[4]; 10 μM aglycone
  Glucuronidation by HLM (in words): not glucuronidated by HLM at all, or only at very low rates; also recorded: very low or below the detection limit
[4]; human hepatic microsomes
  Vmax: 4.0 (2.6–5.4) μmol/(min* g prot)
[5]
  Km: 82 µM
Human UGTs
  Selectivity among human UGTs: selective for UGT1A10
